Literature values, collected in US20100028426A1, “TIME-SPECIFIC DELAYED/PULSATILE RELEASE DOSAGE FORMS” (POLICHEM S.A., priority 2007, published 2010).

Key:
[1] = in vivo

Which results are given for `CCN(C(C)=O)c1cccc(-c2ccnc3c(C#N)cnn23)c1` [Zaleplon]?
time to sleep onset (TSO) (sleep disorders; in vivo): effective in shortening the time to sleep onset; total sleep time and number of awakening (sleep disorders; oral immediate release formulation taken at bed time): neither increases total sleep time, nor decreases the number of awakening; time to peak concentration (t max) [1]: approximately 1 hour
